From US10485235B2, “Aryloxypyrimidinyl ethers as herbicides” (FMC Corporation, priority 2015, dated 2019)

Tests used:
Type in all cases: in vivo
[1] = test system: barnyardgrass (Echinochloa crus-galli); assay: Test A preemergence, barnyardgrass; details: Preemergence, 0 to 100 scale (0 no effect, 100 complete control)
How it was run: (§1)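 Injury was assessed visually about ten days after application, relative to untreated plants, with 0 meaning no effect and 100 complete control. Treatments were soil-directed sprays after sowing (pre) or sprays on seedlings at one to two leaves (post), in loam soil/sand.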

[2] = test system: kochia (Kochia scoparia); assay: Test A preemergence, kochia; details: Preemergence, 0 to 100 scale (0 no effect, 100 complete control)
How it was run: as §1

[3] = test system: ragweed (common ragweed, Ambrosia elatior); assay: Test A preemergence, ragweed; details: Preemergence, 0 to 100 scale (0 no effect, 100 complete control)
How it was run: as §1

[4] = test system: ryegrass, Italian (Italian ryegrass, Lolium multiflorum); assay: Test A preemergence, Italian ryegrass; details: Preemergence, 0 to 100 scale (0 no effect, 100 complete control)
How it was run: as §1

[5] = test system: foxtail, giant (giant foxtail, Setaria faberii); assay: Test A preemergence, giant foxtail; details: Preemergence, 0 to 100 scale (0 no effect, 100 complete control)
How it was run: as §1

[6] = test system: pigweed (Amaranthus retroflexus); assay: Test A preemergence, pigweed; details: Preemergence, 0 to 100 scale (0 no effect, 100 complete control)
How it was run: as §1

[7] = test system: barnyardgrass (Echinochloa crus-galli); assay: Test A postemergence, barnyardgrass
How it was run: as §1

[8] = test system: kochia (Kochia scoparia); assay: Test A postemergence, kochia
How it was run: as §1

[9] = test system: ragweed (common ragweed, Ambrosia elatior); assay: Test A postemergence, ragweed
How it was run: as §1

[10] = test system: ryegrass, Italian (Italian ryegrass, Lolium multiflorum); assay: Test A postemergence, Italian ryegrass
How it was run: as §1

[11] = test system: foxtail, giant (giant foxtail, Setaria faberii); assay: Test A postemergence, giant foxtail
How it was run: as §1

[12] = test system: pigweed (Amaranthus retroflexus); assay: Test A postemergence, pigweed
How it was run: as §1

[13] = test system: wheat (Triticum aestivum); assay: Test A postemergence, wheat
How it was run: as §1

[14] = test system: corn (Zea mays); assay: Test A postemergence, corn
How it was run: as §1

[15] = test system: blackgrass (Alopecurus myosuroides); assay: Test A postemergence, blackgrass
How it was run: as §1

[16] = test system: galium (catchweed bedstraw, Galium aparine); assay: Test A postemergence, galium
How it was run: as §1

[17] = test system: rice (Oryza sativa); assay: Test B flooded paddy test, rice; details: 250 g ai/ha, Flood; visual rating after 13 to 15 days; scale 0 to 100, 0 is no effect, 100 is complete control
How it was run: (§2)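 Plants grown to the 2-leaf stage; pots flooded to 3 cm above soil and compounds applied directly into the paddy water, depth held throughout. After 13 to 15 days in the greenhouse, injury was rated visually against untreated controls on a 0–100 scale (0 no effect, 100 complete control).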

[18] = test system: sedge, umbrella (small-flower umbrella sedge, Cyperus difformis); assay: Test B flooded paddy test, umbrella sedge; details: 250 g ai/ha, Flood; visual rating after 13 to 15 days; scale 0 to 100, 0 is no effect, 100 is complete control
How it was run: as §2

[19] = test system: ducksalad (Heteranthera limosa); assay: Test B flooded paddy test, ducksalad; details: 250 g ai/ha, Flood; visual rating after 13 to 15 days; scale 0 to 100, 0 is no effect, 100 is complete control
How it was run: as §2

[20] = test system: barnyardgrass (Echinochloa crus-galli); assay: Test B flooded paddy test, barnyardgrass; details: 250 g ai/ha, Flood; visual rating after 13 to 15 days; scale 0 to 100, 0 is no effect, 100 is complete control
How it was run: as §2

[21] = 125 g ai/ha, postemergence, 0 to 100 scale, 0 is no effect, 100 is complete control, approximately 10 days
[22] = Postemergence, 31 g ai/ha, 0 to 100 scale (0 no effect, 100 complete control)

With CCC(=O)COc1c(Br)cccc1Oc1ncc(Cl)cn1 [Compound 76] the “Plant response rating, Barnyardgrass” value ([1]; 31 g ai/ha) was 20, the “Plant response rating, Barnyardgrass” value ([1]; 125 g ai/ha) was 40 and the “Plant response rating, Kochia” value ([2]; 31 g ai/ha) was 0. The “Plant response rating, Kochia” value ([2]; 125 g ai/ha) was 0, the “Plant response rating, Ragweed” value ([3]; 31 g ai/ha) was 0 and the “Plant response rating, Ragweed” value ([3]; 125 g ai/ha) was 0. For the same molecule, the “Plant response rating, Ryegrass, Italian” value ([4]; 31 g ai/ha) was 0, the “Plant response rating, Ryegrass, Italian” value ([4]; 125 g ai/ha) was 10 and the “Plant response rating, Foxtail, Giant” value ([5]; 31 g ai/ha) was 10. The “Plant response rating, Foxtail, Giant” value ([5]; 125 g ai/ha) was 70, the “Plant response rating, Pigweed” value ([6]; 31 g ai/ha) was 0 and the “Plant response rating, Pigweed” value ([6]; 125 g ai/ha) was 80. The “Plant response rating, Barnyardgrass” value [7, 21] was 20, the “Plant response rating, Barnyardgrass” value [7, 22] was 0 and the “Plant response rating, Kochia” value [8, 21] was 10. For the same molecule, the “Plant response rating, Kochia” value [8, 22] was 0, the “Plant response rating, Ragweed” value [9, 21] was 0 and the “Plant response rating, Ragweed” value [9, 22] was 0. The “Plant response rating, Ryegrass, Italian” value [10, 21] was 0, the “Plant response rating, Ryegrass, Italian” value [10, 22] was 0 and the “Plant response rating, Foxtail, Giant” value [11, 21] was 40. The “Plant response rating, Foxtail, Giant” value [11, 22] was 10, the “Plant response rating, Pigweed” value [12, 21] was 30 and the “Plant response rating, Pigweed” value [12, 22] was 10. The “Plant response rating, Wheat” value [13, 21] was 0, the “Plant response rating, Wheat” value [13, 22] was 0 and the “Plant response rating, Corn” value [14, 21] was 10. The “Plant response rating, Corn” value [14, 22] was 0, the “Plant response rating, Blackgrass” value [15, 21] was 10 and the “Plant response rating, Blackgrass” value [15, 22] was 0. The “Plant response rating, Galium” value [16, 21] was 20, the “Plant response rating, Galium” value [16, 22] was 10 and the “Plant response rating, Rice” value [17] was 10. For the same molecule, the “Plant response rating, Sedge, Umbrella” value [18] was 70, the “Plant response rating, Ducksalad” value [19] was 90 and the “Plant response rating, Barnyardgrass” value [20] was 10.
